Tests used:
Bile acid receptor [1] = molecular target: T1, Bile acid receptor (Homo sapiens, UniProt Q96RI1); assay: Agonist activity at human GST-fused FXR LBD assessed as cofactor peptide interaction with receptor ligand binding domain by FRET assay
T1 sequence (Q96RI1 whole entry): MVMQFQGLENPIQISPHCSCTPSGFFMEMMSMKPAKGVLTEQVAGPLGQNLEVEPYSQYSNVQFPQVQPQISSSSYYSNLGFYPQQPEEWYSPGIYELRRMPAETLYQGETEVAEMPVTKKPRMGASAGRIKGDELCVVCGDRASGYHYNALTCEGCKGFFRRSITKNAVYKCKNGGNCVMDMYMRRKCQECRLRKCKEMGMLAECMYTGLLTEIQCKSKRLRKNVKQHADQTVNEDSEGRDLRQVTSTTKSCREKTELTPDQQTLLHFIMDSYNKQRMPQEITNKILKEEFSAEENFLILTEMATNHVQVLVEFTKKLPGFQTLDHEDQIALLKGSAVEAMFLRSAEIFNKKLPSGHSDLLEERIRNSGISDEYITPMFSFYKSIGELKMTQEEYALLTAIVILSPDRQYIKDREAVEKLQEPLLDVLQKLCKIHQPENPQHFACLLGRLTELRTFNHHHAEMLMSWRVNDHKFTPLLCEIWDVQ

[2] = molecular target: T2, Bile acid receptor (Homo sapiens) (UniProt Q96RI1); assay: Agonist activity at human GST-fused FXR LBD assessed as cofactor peptide interaction with receptor ligand binding domain by FRET assay relative to GW-4064
T2 sequence (whole entry): T1 sequence (Q96RI1 whole entry)

Bile acid receptor [3] = molecular target: T1, Bile acid receptor; assay: Agonist activity at human […] FXR LBD expressed in HEK293 cells coexpressing GAL4-DNA bindig domain and pFRluc by mammalian one-hybrid assay; type: functional, cell-based
[4] = molecular target: T2, Bile acid receptor (Homo sapiens); assay: Agonist activity at human […] FXR LBD expressed in HEK293 cells coexpressing GAL4-DNA bindig domain and pFRluc by mammalian one-hybrid assay relative to GW-4064; type: functional, cell-based
Bile acid receptor [5] = molecular target: T1, Bile acid receptor; assay: Agonist activity at human full length FXR transfected in HEK293 cells coexpressing pTRexDest/pGL2promotor assessed as luciferase activity by direct reporter cellular assay; type: functional, cell-based
[6] = molecular target: T2, Bile acid receptor (Homo sapiens); assay: Agonist activity at human full length FXR transfected in HEK293 cells coexpressing pTRexDest/pGL2promotor assessed as luciferase activity by direct reporter cellular assay relative to GW-4064; type: functional, cell-based

Row | Compound | EC50 (Bile acid receptor [1]) [µM] | Efficacy [2] [%] | EC50 (Bile acid receptor [3]; read-out: EC50) [µM] | Efficacy [4] [%] | EC50 (Bile acid receptor [5]; read-out: EC50) [µM] | Efficacy [6] [%] | EC50 (Bile acid receptor [3]; hek293) | EC50 (Bile acid receptor [5]; hek293)
1 | CC(Nc1ccc(C(=O)O)cc1)c1ccc(OCc2c(-c3c(Cl)cccc3Cl)noc2C2CC2)nc1C(F)(F)F (stereo not given) | 0.101 | 99 | 0.333 | 59 | 0.202 | 49 |  | 
2 | CC(C)c1onc(-c2c(Cl)cccc2Cl)c1COc1ccc(N(C)Cc2ccc(OCC(=O)O)cc2)c(C(F)(F)F)n1 | 0.035 | 90 | 0.214 | 69 | 0.019 | 59 |  | 
3 | CC(C)c1onc(-c2c(Cl)cccc2Cl)c1COc1ccc(N(C)C(=O)c2ccc(C(=O)O)cc2)c(C(F)(F)F)n1 | 0.235 | 101 | 0.316 | 36 | 0.208 | 63 |  | 
4 | CC(C)c1onc(-c2c(Cl)cccc2Cl)c1COc1ccc(/C=C/c2cccc(C(=O)O)c2)c(Cl)c1 |  | 100 |  | 100 |  | 100 |  | 
5 | O=C(O)c1cccc(OCc2ccc(OCc3c(-c4c(Cl)cccc4Cl)noc3C3CC3)nc2C(F)(F)F)c1 | 0.043 | 98 | 0.151 | 62 | 0.033 | 41 |  | 
6 | Cc1nc(OCc2c(-c3c(Cl)cccc3Cl)noc2C(C)C)ccc1N(C)C(=O)c1ccc(C(=O)O)cc1 | 0.365 | 95 | 2.03 | 21 | 1.19 | 49 |  | 
7 | CC(c1ccc(OCc2c(-c3c(Cl)cccc3Cl)noc2C2CC2)nc1C(F)(F)F)N(C)c1ccc(C(=O)O)cc1 (stereo not given) | 0.179 | 102 | 0.208 | 55 | 0.182 | 57 |  | 
8 | Cc1cc(OCc2c(-c3c(Cl)cccc3Cl)[n-][o+]c2C(C)C)ncc1[N+](=O)[O-] | 0.089 |  | 1 |  | 1.14 |  |  | 
9 | CC(C)c1onc(-c2c(Cl)cccc2Cl)c1COc1ccc(N(C)Cc2cccc(C(=O)NS(C)(=O)=O)c2)c(C(F)(F)F)n1 | 0.048 | 110 | 0.279 | 59 | 0.02 | 72 |  | 
10 | CC(C)c1onc(-c2c(Cl)cccc2Cl)c1COc1ccc(N(C)Cc2ccc(C(=O)NS(C)(=O)=O)cc2)c(C(F)(F)F)n1 | 0.04 | 105 | 0.221 | 64 | 0.011 | 67 |  | 
11 | CC(C)c1onc(-c2c(Cl)cccc2Cl)c1COc1ccc(N(C)Cc2ccc(CCC(=O)O)cc2)c(C(F)(F)F)n1 | 0.017 | 96 | 0.035 | 55 | 0.016 | 66 |  | 
12 | Cc1cc(OCc2c(-c3c(Cl)cccc3Cl)noc2C(C)C)ncc1[N+](=O)[O-] |  | 101 |  | 58 |  | 76 |  | 
13 | Cc1cc(OCc2c(-c3c(Cl)cccc3Cl)noc2C(C)C)nc2ccccc12 | 0.147 | 104 | 0.536 | 40 | 0.878 | 68 |  | 
14 | CC(C)c1onc(-c2c(Cl)cccc2Cl)c1COc1ccc(NC(=O)c2ccc(C(=O)O)cc2)c(C(F)(F)F)n1 | 0.452 | 109 | 0.474 | 21 | 0.385 | 48 |  | 
15 | CC(C)c1onc(-c2c(Cl)cccc2Cl)c1COc1cnc(N(C)Cc2ccc(C(=O)O)cc2)c(Cl)c1 | 0.242 | 103 | 0.107 | 70 | 0.12 | 51 |  | 
16 | CC(C)c1onc(-c2c(Cl)cccc2Cl)c1COc1ccc(N(C)Cc2cccc(C(=O)O)c2)c(C(F)(F)F)n1 | 0.012 | 102 | 0.08 | 89 | 0.006 | 58 |  | 
17 | CC(C)c1onc(-c2c(Cl)cccc2Cl)c1COc1ccc(N(C)C(=O)c2cccc(C(=O)O)c2)c(C(F)(F)F)n1 | 0.433 | 110 | 0.571 | 35 | 0.537 | 55 |  | 
18 | CC(C)c1onc(-c2c(Cl)cccc2Cl)c1COc1ccc(NCc2ccc(C(=O)O)cc2)c(C(F)(F)F)n1 | 0.162 | 97 | 0.398 | 48 | 0.101 | 45 |  | 
19 | CC(C)c1onc(-c2c(Cl)cccc2Cl)c1COc1ccc(N(C)Cc2cccc(C(=O)NCCOP(=O)(O)O)c2)c(C(F)(F)F)n1 | 0.036 | 114 | 0.457 | 48 | 0.216 | 61 |  | 
20 | O=C(O)c1ccccc1OCc1ccc(OCc2c(-c3c(Cl)cccc3Cl)noc2C2CC2)nc1C(F)(F)F | 0.434 | 91 | 1.71 | 63 | 0.611 | 33 |  | 
21 | CC(Oc1cccc(C(=O)O)c1)c1ccc(OCc2c(-c3c(Cl)cccc3Cl)noc2C2CC2)nc1C(F)(F)F (stereo not given) | 0.155 | 102 | 0.107 | 50 | 0.058 | 49 |  | 
22 | O=C(O)c1ccc(OCc2ccc(OCc3c(-c4c(Cl)cccc4Cl)noc3C3CC3)nc2C(F)(F)F)cc1 | 0.076 | 86 | 0.095 | 59 | 0.038 | 42 |  | 
23 | Cc1cc(C(F)(F)F)cc(OCc2c(-c3c(Cl)cccc3Cl)noc2C(C)C)n1 | 0.225 |  |  |  |  |  | Not Active | Not Active
24 | CC(C)c1onc(-c2c(Cl)cccc2Cl)c1COc1cnc(N(C)Cc2cccc(C(=O)O)c2)c(Cl)c1 | 0.19 | 105 | 0.1 | 42 | 0.061 | 54 |  | 
25 | CCN(Cc1ccc(C(=O)O)cc1)c1ccc(OCc2c(-c3c(Cl)cccc3Cl)noc2C2CC2)nc1C(F)(F)F | 0.194 | 94 | 0.18 | 54 | 0.113 | 43 |  | 
26 | CC(C)c1onc(-c2c(Cl)cccc2Cl)c1COc1ccc(N(C)Cc2ccc(OCCO)cc2)c(C(F)(F)F)n1 | 0.164 | 87 | 1.15 | 43 | 0.155 | 59 |  | 
27 | CC(Oc1ccc(C(=O)O)cc1)c1ccc(OCc2c(-c3c(Cl)cccc3Cl)noc2C2CC2)nc1C(F)(F)F (stereo not given) | 0.352 | 89 | 0.189 | 70 | 0.611 | 33 |  | 
